Source: patent US11400107B2, “Cancer treatments” (NuCana plc, priority 2016, dated 2022)
Entries after “also recorded” stand apart in the source; their conditions may differ.

Test system: advance progressive cancers refractory to, or relapsed on, all conventional therapies
Experiment: ProGem1 dose escalation clinical study of NUC-1031
Format: in vivo, human
Set-up: CA125 level: unit not given here
Source text: The following data were generated in clinical studies of NUC-1031 in human patients with advance progressive cancers that are refractory to, or have relapsed on, all conventional therapies that have been used to date. The results clearly illustrate the ability of NUC-1031 to successfully treat refractory cancers.
Although the primary objectives of the dose escalation part of the study were to determine the Recommended Phase II Dose (RP2D) and safety profile, secondary objectives included determining the PK profile, however effective treatment of patients with a range of refractory cancers has also been observed as part of this study.
A total of 68 patients have been entered into this dose escalation study, of which 49 were evaluable for clinical response in that they have received at least 2 Cycles of NUC-1031 and were therefore eligible for a RECIST 1.1 assessment.
NUC-1031 was administered as a 5 to 30 minute intravenous slow bolus injection. • Schedule A: NUC-1031 was administered on days 1, 8, 15 of a 4 weekly Cycle. • Schedule B: NUC-1031 was administered on days 1, 5, 8, 12, 15, 19, of a 4 weekly Cycle. Evaluable Patients [n=49]
Evaluable patients were patients that received ≥2 Cycles of NUC-1031 and were therefore eligible for a RECIST 1.1 assessment at the end of Cycle 2. Where the disease response duration, measured in months, is followed by a “+” this indicates ongoing disease control as of the latest cut-off date.

[1] = Patient 004, breast cancer, 500 mg/m^2 weekly
[2] = Patient 005, ovarian cancer, 500 mg/m^2 weekly
[3] = Patient 006, cholangiocarcinoma, 375 mg/m^2 twice weekly, then 500 mg/m^2
[4] = Patient 007, colorectal cancer, 375 mg/m^2 twice weekly, then 500 mg/m^2 weekly
[5] = Patient 008, cancer of unknown primary, 375 mg/m^2 twice weekly
[6] = Patient 010, endometrial cancer, 750 then 500 mg/m^2 weekly
[7] = Patient 011, uterine carcinosarcoma, 375 mg/m^2 twice weekly
[8] = Patient 011, uterine carcinosarcoma, 375 mg/m^2 twice weekly, then 625 mg/m^2 weekly
[9] = Patient 012, cholangiocarcinoma, 375 mg/m^2 twice weekly, then 625 mg/m^2 weekly
[10] = Patient 013, cervical cancer, 750, 625, then 500 mg/m^2 weekly
[11] = Patient 017, lung cancer, 750 then 625 mg/m^2 weekly
[12] = Patient 018, lung cancer, 625 mg/m^2 weekly
[13] = Patient 021, fallopian tube cancer, 625 mg/m^2 weekly
[14] = Patient 025, mesothelioma, 725 mg/m^2 weekly
[15] = Patient 026, colorectal cancer, 725 mg/m^2 weekly
[16] = Patient 027, ovarian cancer, 725, 675, then 625 mg/m^2 weekly
[17] = Patient 029, breast cancer, 725 mg/m^2 weekly
[18] = Patient 030, ovarian cancer, 725 mg/m^2 weekly
[19] = Patient 032, oesophageal cancer, 750 mg/m^2 weekly
[20] = Patient 033, cholangiocarcinoma, 750 mg/m^2 weekly
[21] = Patient 036, renal carcinoma, 825 then 750 mg/m^2 weekly
[22] = Patient 037, pancreatic cancer, 1,000 then 900 mg/m^2 weekly

C[C@H](NP(=O)(OC[C@H]1O[C@@H](n2ccc(N)nc2=O)C(F)(F)[C@@H]1O)Oc1ccccc1)C(=O)OCc1ccccc1 (stereo partly drawn) [NUC-1031, 2′-deoxy-2′,2′-difluoro-D-cytidine-5′-O-[phenyl (benzoxy-L-alaninyl)] phosphate]
Best response to RECIST [1]: Stable Disease
Duration of response to RECIST [1]: 12 months
Best response to RECIST [2]: Stable Disease
Duration of response to RECIST [2]: 15 months
CA125 level (Patient 005, ovarian cancer, end of Cycle 6 (208 at start of study)): 140
Best response to RECIST [3]: Stable Disease
Duration of response to RECIST [3]: 3 months
CA19.9 level (Patient 006, cholangiocarcinoma, after two doses (from 125,002)): 59,285
Adverse events (grade) [4]: thrombocytopaenia (G3)
Best response to RECIST [4]: Stable Disease
Duration of response to RECIST [4]: 3 months
CEA level (Patient 007, colorectal cancer, after treatment (from 361)): 286
CA19.9 level (Patient 007, colorectal cancer, after treatment (from 3,151)): 2,957
Adverse events (grade) [5]: transient (G3) transaminitis (ALT and AST)
Best response to RECIST [5]: Stable Disease
Duration of response to RECIST [5]: 3 months
Adverse events (grade) [6]: neutropenia (G3); also recorded: transient Grade 3 anaemia
Best response to RECIST [6]: Stable Disease
Duration of response to RECIST [6]: 9 months
CA125 level (Patient 010, endometrial cancer, after treatment (from 727)): 488
Adverse events (grade) [7]: transient neutropaenia (G3); also recorded: low haemoglobin (G2)
Reduction in tumour volume [7]: 26%
Best response to RECIST [8]: Stable Disease
Duration of response to RECIST [8]: 4 months
Best response to RECIST [9]: Stable Disease
Duration of response to RECIST [9]: 8 months
Best response to RECIST [10]: Partial Response
Duration of response to RECIST [10]: 9 months
PFS [10]: 11 months
Best response to RECIST (Patient 014, mesothelioma, 750 then 625 mg/m^2 weekly): Progressive Disease
Best response to RECIST (Patient 015, cancer (unknown primary), 750, 625, then 500 mg/m^2 weekly): Partial Response
Reduction in tumour size (Patient 015, cancer (unknown primary), CT scan on 9 Jan. 2015): approximately 58%
Adverse events (grade) (Patient 015, cancer (unknown primary), Cycle 1 Day 8): thrombocytopenia (G3); also recorded: lymphopenia (G3); also recorded: neutropenia (G2)
PFS (Patient 015, cancer (unknown primary), ongoing): ≥ 24 months
Duration of response to RECIST (Patient 015, cancer (unknown primary), ongoing, 750, 625, then 500 mg/m^2 weekly): ≥ 20 months
Best response to RECIST [11]: Partial Response
Duration of response to RECIST [11]: 3 Months
PFS [11]: 10 Months
Best response to RECIST [12]: Stable Disease
Duration of response to RECIST [12]: 4 months
Best overall response [13]: Partial Response
Duration of Partial Response according to GCIG criteria [13]: 9 months
Duration of Partial Response according to RECIST [13]: 3 months
CA125 reduction from baseline (Patient 021, fallopian tube cancer, baseline to end of Cycle 6): 91%
CA125 level (Patient 021, fallopian tube cancer, end of Cycle 6 (baseline 372)): 35
Best response to RECIST (Patient 024, cancer of unknown primary, 675 mg/m^2 weekly): Progressive Disease
Best response to RECIST [14]: Stable Disease
Duration of response to RECIST [14]: 4 months
Best response to RECIST [15]: Stable Disease
Duration of response to RECIST [15]: 4 months
Adverse events (grade) (Patient 027, ovarian cancer, 725 mg/m^2, following Cycle 1 Day 1, a DLT): elevated ALT (G3)
Best response to RECIST [16]: Stable Disease
Duration of response to RECIST [16]: 8 months
Reduction in tumour volume [16]: 23%
ALT level (Patient 027, ovarian cancer, day 7 after Cycle 1 Day 1 at 725 mg/m^2 (96 at baseline)): 256 U/L
CA125 level (Patient 027, ovarian cancer, end of Cycle 6 (188 at baseline)): 99
Best response to RECIST [17]: Stable Disease
Duration of response to RECIST [17]: 4 months
Best response to RECIST [18]: Stable Disease
Duration of response to RECIST [18]: 3 months
Best response to RECIST (Patient 031, cholangiocarcinoma, 750 mg/m^2 weekly, end of Cycle 2 CT scan): Progressive Disease
Best response to RECIST [19]: Stable Disease
Duration of response to RECIST [19]: 2 months
Best response to RECIST [20]: Stable Disease
Duration of response to RECIST [20]: 3 months
Adverse events (grade) (Patient 036, renal carcinoma, 825 mg/m^2, following Cycle 5 Day 1): thrombocytopenia (G3)
Best response to RECIST [21]: Stable Disease
Duration of response to RECIST [21]: 5 months
Reduction in tumour volume (Patient 036, renal carcinoma, end of Cycle 4 CT scan): 7%
Best response to RECIST [22]: Partial Response
Duration of response to RECIST [22]: 1 month
PFS [22]: 4 months
Reduction in tumour volume (Patient 037, pancreatic cancer, CT scan on 29 Apr. 2014): 30%
CEA level (Patient 037, pancreatic cancer, after treatment (536 at baseline)): 42
CA19.9 level (Patient 037, pancreatic cancer, after treatment (15,000 at baseline)): 4,000
Reduction in tumour volume (Patient 037, pancreatic cancer, end of Cycle 2 CT scan): 18.4%
Best response to RECIST (Patient 038, ovarian cancer, 900 mg/m^2 weekly): Progressive Disease
Increase in tumour volume (Patient 038, ovarian cancer, end of Cycle 2 scan): 25%
